In US20060281778A1, “Compounds for inhibiting KSP Kinesin activity” (Schering Corporation, priority 2005, published 2006):

Molecular target: T1, KSP motor domain (Homo sapiens, UniProt P52732)
T1 sequence (P52732 18-359 limits assumed): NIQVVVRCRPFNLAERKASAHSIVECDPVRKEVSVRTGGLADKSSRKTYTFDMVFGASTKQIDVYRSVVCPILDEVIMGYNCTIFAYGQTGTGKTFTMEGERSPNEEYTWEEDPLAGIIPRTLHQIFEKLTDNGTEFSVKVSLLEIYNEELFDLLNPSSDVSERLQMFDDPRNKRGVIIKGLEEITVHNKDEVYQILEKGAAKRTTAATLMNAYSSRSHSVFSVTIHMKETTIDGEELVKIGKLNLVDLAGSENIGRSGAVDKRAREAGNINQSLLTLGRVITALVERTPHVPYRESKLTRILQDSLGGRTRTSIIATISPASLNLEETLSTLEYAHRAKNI
Test: KSP endpoint assay (microtubule-stimulated ATPase, Biomol green, OD620)
Type: biochemical
Conditions: not given
Method: Serial dilutions of the compounds were prepared in a low binding, 96-well microtiter plate (Costar #3600) using 40% DMSO (Fisher BP231). The diluted compounds were added to a 384-well microtiter plate (Fisher 12-565-506). […] Following a 10 minute incubation, ATP (Sigma A-3377) (final concentration of ATP: 100 μM) was added to start the reaction. The final reaction volume was 25 μL. Final test compound concentration ranged from 50 μM to 5 nM, and 10 μM to 0.128 nM. The reaction was incubated for 1 hour at room temperature. The reaction was stopped by the addition of 50 μL Biomol green reagent (Biomol AK111) per well, and was allowed to incubate for 20 minutes at room temperature. The 384-well microtiter plate was then transferred to an absorbance reader (Molecular Devices SpectraMax plus) and a single measurement was taken at 620 nm.
For both endpoint and kinetic assays, the percent activity for each concentration is calculated using the following equation: Y=((X−background)/(positive control−background))*100
Y is the % activity and X is the measured reading (OD620 or rate)
For an IC50 determination, the % activity was fit by the following equation using a nonlinear curve-fitting program for sigmoidal dose-responses (variable slopes) (GraphPad Prizm). Y=Bottom+(Top−Bottom)/(1+10ˆ((Log EC50−X)*HillSlope))
All IC50 values are obtained from the end point assay.

Compound | IC50 [nM]
C[Si](C)(C)c1ccc2nc3sc(C(N)=O)cc3cc2c1 [Compound 12, 6-(trimethylsilyl)thieno[2,3-b]quinoline-2-carboxamide] | 38

Same assay, conditions: endpoint assay; 2.5-10 nM KSP motor domain, 55 μg/mL microtubules, 100 μM ATP, 1 hour at room temperature; read-out: IC50 (KSP inhibitory activity, endpoint assay)

Compound | IC50 [nM]
CC(C)(C)c1ccc2nc3sc(C#N)cc3cc2c1 [Compound 1, 6-tert-butyl-thieno[2,3-b]quinoline-2-carbonitrile] | 160
CC(C)(C)c1ccc2nc3sc(C(N)=O)cc3cc2c1 [Compound 2, 6-tert-butyl-thieno[2,3-b]quinoline-2-carboxylic acid amide] | 80
CC(C)(C)c1ccc2nc3sc(C(=O)O)cc3cc2c1 [Compound 3, 6-tert-butyl-thieno[2,3-b]quinoline-2-carboxylic acid] | > 10000
CC(C)(C)OC(=O)NCCNC(=O)c1cc2cc3cc(C(C)(C)C)ccc3nc2s1 [Compound 4, {2-[(6-tert-Butyl-thieno[2,3-b]quinoline-2-carbonyl)amino]ethyl}carbamic acid tert-butyl ester] | > 10000
CC(C)(C)c1ccc2nc3sc(C(=O)NCCN)cc3cc2c1 [Compound 5, 6-tert-butyl-thieno[2,3-b]quinoline-2-carboxylic acid (2-aminoethyl)amide] | 70
CNCCNC(=O)c1cc2cc3cc(C(C)(C)C)ccc3nc2s1 [Compound 6, 6-tert-butyl-thieno[2,3-b]quinoline-2-carboxylic acid (2-methylaminoethyl)amide] | 290
CN(C)CCNC(=O)c1cc2cc3cc(C(C)(C)C)ccc3nc2s1 [Compound 7, 6-tert-butyl-thieno[2,3-b]quinoline-2-carboxylic acid (2-dimethylaminoethyl)-amide] | > 10000
CC(C)(C)c1ccc2nc3sc(C(=O)NCCC#N)cc3cc2c1 [Compound 8, 6-tert-Butyl-thieno[2,3-b]quinoline-2-carboxylic acid (2-cyanoethyl)amide] | 9000
CC(C)(C)c1ccc2nc3sc(C(=O)NCC#N)cc3cc2c1 [Compound 9, 6-tert-butyl-thieno[2,3-b]quinoline-2-carboxylic acid cyanomethylamide] | 600
COc1ccc(CN2CC(NC(=O)c3cc4cc5cc(C(C)(C)C)ccc5nc4s3)C2=O)c(OC)c1 (centres unmarked) [Compound 10, 6-tert-butyl-thieno[2,3-b]quinoline-2-carboxylic acid [1-(2,4-dimethoxybenzyl)-2-oxo-azetidin-3-yl]amide] | > 10000
CC(C)(C)c1ccc2nc3sc(C(=O)NC4CNC4=O)cc3cc2c1 (centres unmarked) [Compound 11, 6-tert-butyl-thieno[2,3-b]quinoline-2-carboxylic acid (2-oxo-azetidin-3-yl)amide] | 8400
CC(C)(C)c1ccc2nc3sc(C(=O)N[C@H](CN)c4ccccc4)cc3cc2c1 [Compound 13, 6-tert-butyl-thieno[2,3-b]quinoline-2-carboxylic acid (2-amino-1-(S)-phenyl-ethyl)-amide] | 35
CC(C)(C)c1ccc2nc3sc(C(=O)N[C@H](CN)c4cccc(N)c4)cc3cc2c1 [Compound 14, 6-tert-butyl-thieno[2,3-b]quinoline-2-carboxylic acid [2(S)-amino-1-(3-amino-phenyl)-ethyl]-amide] | 25
CC(C)(C)c1ccc2nc3sc(C(=O)N[C@H](CN)c4cccc(NC(=O)c5cnccn5)c4)cc3cc2c1 [Compound 15, 6-tert-butyl-thieno[2,3-b]quinoline-2-carboxylic acid (2-amino-1(S)-{3-[(pyrazine-2-carbonyl)-amino]-phenyl}-ethyl)-amide] | 30
CC(C)(C)c1ccc2nc3sc(C(=O)N[C@H](CN)c4cccc(NC(=O)c5nccnc5N)c4)cc3cc2c1 [Compound 16] | 26
Cc1cc(C(=O)Nc2cccc([C@@H](CN)NC(=O)c3cc4cc5cc(C(C)(C)C)ccc5nc4s3)c2)no1 [Compound 17, 6-tert-butyl-thieno[2,3-b]quinoline-2-carboxylic acid (2-amino-1(S)-{3-[(5-methyl-isoxazole-3-carbonyl)-amino]-phenyl}-ethyl)-amide] | 36
